From US8569327B2, “Phenanthroindolizidine derivative and NFκB inhibitor containing same as active ingredient” (Kabushiki Kaisha Yakult Honsha, priority 2008, dated 2013)
Marks after values point to notes of the source that are not given here.

Experiments:
[1] = test system: NFκB; experiment: Inhibitory action on the NFκB activity, luciferase assay in SW480/NRE-Luc cells; type: cell-based, human; details: for NFκB inhibitory activity IC50: SW480/NRE-Luc cells, compound 1 h then 50 ng/mL TNFα 4 h, luciferase; for IC50: Homo sapiens, SW480, read-out: NFκB inhibitory activity IC50
Procedure, shortened: (§1)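 Stable SW480 colon cancer lines carried luciferase driven by a 5× NFκB response element or by the SV40 promoter. Compound was added 1 h before 50 ng/mL TNFα, followed by 4 h culture at 37 °C; luminescence was read and IC50 taken as 50% inhibition of induced luciferase expression.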

[2] = test system: SV40 promoter; experiment: SV40 promoter activity, luciferase assay in SW480/SV40-Luc cells; type: cell-based, human; details: for SV40 promoter inhibitory activity IC50: SW480/SV40-Luc cells, luciferase; for IC50: Homo sapiens, SW480, read-out: SV40 promoter inhibitory activity IC50
Procedure, shortened: as §1

[3] = test system: human colon cancer SW480 cells; experiment: Inhibitory action on the proliferation of SW480 cells; type: cell-based; details: 48 hours, TetraColor ONE; for IC50: Homo sapiens, SW480
Procedure, shortened: (§2)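 Cells seeded overnight (SW480 2000/well in 10% FBS/RPMI1640; A549, HT-29 1000/well in 10% FBS DMEM or DMEM F12 HAM), then compound-treated at 37 °C, 5% CO2 for 48 h (SW480) or 96 h (A549, HT-29). Viable cells counted by TetraColor ONE; IC50 for 50% proliferation inhibition.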

[4] = test system: human colon cancer HT-29 cells; experiment: Inhibitory action on the proliferation of HT-29 cells; type: cell-based; details: 96 hours, TetraColor ONE; for IC50: Homo sapiens, HT-29
Procedure, shortened: as §2

[5] = test system: human non-small cell lung cancer A549 cells; experiment: Inhibitory action on the proliferation of A549 cells; type: cell-based; details: 96 hours, TetraColor ONE; for IC50: Homo sapiens, A549
Procedure, shortened: as §2

[6] = test system: mouse fibrosarcoma Meth A cells; experiment: Antitumor effect in mice transplanted with mouse fibrosarcoma Meth A cells; type: in vivo; details: intravenous on days 1, 5, 9, tumor weight day 21, BALB/c mice
Procedure: The antitumor effect of the phenanthroindolizidine alkaloid compound of the present invention in vivo was studied using mice transplanted with mouse fibrosarcoma Meth A cells. Meth A cells were transplanted subcutaneously in the inguinal region of male 7-week-old BALB/c mice (2.5×10^5 cells/mouse). Subsequently, on days 1, 5, and 9, the compound of the present invention was intravenously administered. To a control group, physiological saline, a solvent, was administered. On day 21 after the cell transplantation, tumor was excised and measured for its weight, and subsequently a tumor growth-inhibition rate IR (%) was obtained by the following formula. Tumor growth-inhibition rate IR (%)=(1−the weight of the tumor in an administration group/the weight of the tumor in a control group)×100

[7] = test system: mice transplanted with mouse fibrosarcoma Meth A cells; experiment: Animal toxicity test; type: in vivo; details: intravenous days 1, 5, 9, observed three weeks
Procedure: Also, the toxicity of known phenanthroindolizidine alkaloid compounds, namely (12aS,13S)-6,7-dimethoxy-9,10,11,12,12a,13-hexahydro-9a-aza-cyclopenta[b]triphenylene-3,13-diol (known compound 1; refer to WO01/023384) and (12aS,13S)-3,6,7-trimethoxy-9,10,11,12,12a,13-hexahydro-9a-aza-cyclopenta[b]triphenylene-13-ol (known compound 2; refer to Planta Med., 2002, 68: 186-188), was simultaneously studied. To a control group, a physiological saline solution, a solvent, was administered. As a result, as shown in the following Tables 35 and 36, all the mice survived in a group administered with the compound of the present invention.

COC(=O)CCC(=O)Oc1ccc2c3c(c4cc(OC)c(OC)cc4c2c1)CN1CCC[C@H]1[C@H]3O.Cl [Compound 16, succinic acid(12aS,13S)-13-hydroxy-6,7-dimethoxy-9,10,11,12,12a,13-hexahydro-9a-aza-cyclopenta[b]triphenylene-3-yl ester methyl ester hydrochloride]
NFκB inhibitory activity IC50 [1]: 0.37 ng/mL | SV40 promoter inhibitory activity IC50 [2]: >100 ng/mL | SW480 proliferation inhibitory action IC50 [3]: 0.76 ng/mL | HT-29 proliferation inhibitory action IC50 [4]: 0.17 ng/mL | A549 proliferation inhibitory action IC50 [5]: 0.59 ng/mL | Tumor growth inhibition rate IR ([6]; total dose 25 mg/kg): 48.8* % | Tumor growth inhibition rate IR ([6]; total dose 50 mg/kg): 39.1%

COC(=O)Oc1ccc2c3c(c4cc(OC)c(OC)cc4c2c1)CN1CCC[C@H]1[C@H]3O.Cl [Compound 17, carbonic acid(12aS,13S)-13-hydroxy-6,7-dimethoxy-9,10,11,12,12a,13-hexahydro-9a-aza-cyclopenta[b]triphenylene-3-yl ester methyl ester hydrochloride]
NFκB inhibitory activity IC50 [1]: 0.83 ng/mL | SV40 promoter inhibitory activity IC50 [2]: >100 ng/mL | SW480 proliferation inhibitory action IC50 [3]: 0.63 ng/mL | HT-29 proliferation inhibitory action IC50 [4]: 0.067 ng/mL | A549 proliferation inhibitory action IC50 [5]: 0.53 ng/mL | Tumor growth inhibition rate IR ([6]; total dose 25 mg/kg): 54.2* % | Tumor growth inhibition rate IR ([6]; total dose 50 mg/kg): 50.0%

COc1cc2c3c(c4ccc(OC(=O)N(C)C)cc4c2cc1OC)[C@H](O)[C@@H]1CCCN1C3.Cl [Compound 21, dimethyl-carbamic acid(12aS,13S)-13-hydroxy-6,7-dimethoxy-9,10,11,12,12a,13-hexahydro-9a-aza-cyclopenta[b]triphenylene-3-yl ester hydrochloride]
NFκB inhibitory activity IC50 [1]: 23.3 ng/mL | SV40 promoter inhibitory activity IC50 [2]: >10000 ng/mL | SW480 proliferation inhibitory action IC50 [3]: 38.3 ng/mL | HT-29 proliferation inhibitory action IC50 [4]: 24.2 ng/mL | A549 proliferation inhibitory action IC50 [5]: 16.4 ng/mL | Mortality rate ([7]; total dose 25 mg/kg): 0/5 | Mortality rate ([7]; total dose 50 mg/kg): 0/5

C#CCOC(=O)Oc1ccc2c3c(c4cc(OC)c(OC)cc4c2c1)CN1CCC[C@H]1[C@H]3O.Cl [Compound 27, carbonic acid(12aS,13S)-13-hydroxy-6,7-dimethoxy-9,10,11,12,12a,13-hexahydro-9a-aza-cyclopenta[b]triphenylene-3-yl ester-propyn-2-yl ester hydrochloride]
NFκB inhibitory activity IC50 [1]: 0.37 ng/mL | SV40 promoter inhibitory activity IC50 [2]: >10 ng/mL | SW480 proliferation inhibitory action IC50 [3]: 0.66 ng/mL | HT-29 proliferation inhibitory action IC50 [4]: 0.055 ng/mL | A549 proliferation inhibitory action IC50 [5]: 0.025 ng/mL | Mortality rate ([7]; total dose 25 mg/kg): 0/5 | Mortality rate ([7]; total dose 50 mg/kg): 0/5

CCOC(=O)Oc1ccc2c3c(c4cc(OC)c(OC)cc4c2c1)CN1CCC[C@H]1[C@H]3O.Cl [Compound 28, carbonic acid ethyl ester(12aS,13S)-13-hydroxy-6,7-dimethoxy-9,10,11,12,12a,13-hexahydro-9a-aza-cyclopenta[b]triphenylene-3-yl ester hydrochloride]
NFκB inhibitory activity IC50 [1]: 1.0 ng/mL | SV40 promoter inhibitory activity IC50 [2]: >10 ng/mL | SW480 proliferation inhibitory action IC50 [3]: 0.65 ng/mL | HT-29 proliferation inhibitory action IC50 [4]: 0.064 ng/mL | A549 proliferation inhibitory action IC50 [5]: 0.037 ng/mL | Mortality rate ([7]; total dose 25 mg/kg): 0/5 | Mortality rate ([7]; total dose 50 mg/kg): 0/5

COc1cc2c3c(c4cc(O)ccc4c2cc1OC)[C@H](O)[C@@H]1CCCN1C3.Cl [Compound 29, (12aS,13S)-6,7-dimethoxy-9,10,11,12,12a,13-hexahydro-9a-aza-cyclopenta[b]triphenylene-2,13-diol hydrochloride]
IC50 [1]: 1.4 ng/mL | IC50 [2]: > 1000 ng/mL | IC50 [3]: 4 ng/mL | IC50 [4]: 2.5 ng/mL | IC50 [5]: 1.7 ng/mL | Mortality rate ([7]; total dose 25 mg/kg): 0/5 | Mortality rate ([7]; total dose 50 mg/kg): 0/5

COc1cc2c3c(c4ccc(F)cc4c2cc1OC)C[C@@H]1CCCN1C3.Cl [Compound 31, (S)-3-fluoro-6,7-dimethoxy-9,10,11,12,12a,13-hexahydro-9a-aza-cyclopenta[b]triphenylene hydrochloride]
IC50 [1]: 28.8 ng/mL | IC50 [2]: > 1000 ng/mL | IC50 [3]: 50.2 ng/mL | IC50 [4]: 10.6 ng/mL | IC50 [5]: 1.5 ng/mL | Mortality rate ([7]; total dose 25 mg/kg): 0/5 | Mortality rate ([7]; total dose 50 mg/kg): 0/5

COc1cc2c3c(c4ccccc4c2cc1OC)C[C@@H]1CCCN1C3.Cl [Compound 32, (S)-6,7-dimethoxy-9,10,11,12,12a,13-hexahydro-9a-aza-cyclopenta[b]triphenylene hydrochloride]
IC50 [1]: 27.8 ng/mL | IC50 [2]: > 100 ng/mL | IC50 [3]: 39.3 ng/mL | IC50 [4]: 3.1 ng/mL | IC50 [5]: 0.7 ng/mL | Mortality rate ([7]; total dose 25 mg/kg): 0/5 | Mortality rate ([7]; total dose 50 mg/kg): 0/5

COc1cc2c3c(c4cc(O)ccc4c2cc1OC)C[C@@H]1CCCN1C3.Cl [Compound 33, (S)-6,7-dimethoxy-9,10,11,12,12a,13-hexahydro-9a-aza-cyclopenta[b]triphenylene-2-ol hydrochloride]
IC50 [1]: 5.3 ng/mL | IC50 [2]: > 100 ng/mL | IC50 [3]: 10.8 ng/mL | IC50 [4]: 6.4 ng/mL | IC50 [5]: 0.97 ng/mL | Mortality rate ([7]; total dose 25 mg/kg): 0/5 | Mortality rate ([7]; total dose 50 mg/kg): 0/5

COc1cc2c3c(c4ccc(OC(C)=O)cc4c2cc1OC)C[C@@H]1CCCN1C3.Cl [Compound 34, acetic acid(S)-6,7-dimethoxy-9,10,11,12,12a,13-hexahydro-9a-aza-cyclopenta[b]triphenylene-3-yl ester hydrochloride]
NFκB inhibitory activity IC50 [1]: 0.026 ng/mL | SV40 promoter inhibitory activity IC50 [2]: >100 ng/mL | SW480 proliferation inhibitory action IC50 [3]: 0.042 ng/mL | HT-29 proliferation inhibitory action IC50 [4]: 0.52 ng/mL | A549 proliferation inhibitory action IC50 [5]: 0.18 ng/mL | Mortality rate ([7]; total dose 25 mg/kg): 0/5 | Mortality rate ([7]; total dose 50 mg/kg): 0/5

COC(=O)CCC(=O)Oc1ccc2c3c(c4cc(OC)c(OC)cc4c2c1)CN1CCC[C@H]1C3.Cl [Compound 36, succinic acid(S)-6,7-dimethoxy-9,10,11,12,12a,13-hexahydro-9a-aza-cyclopenta[b]triphenylene-3-yl ester methyl ester hydrochloride]
NFκB inhibitory activity IC50 [1]: 0.64 ng/mL | SV40 promoter inhibitory activity IC50 [2]: >100 ng/mL | SW480 proliferation inhibitory action IC50 [3]: 0.96 ng/mL | HT-29 proliferation inhibitory action IC50 [4]: 2.3 ng/mL | A549 proliferation inhibitory action IC50 [5]: 0.82 ng/mL | Mortality rate ([7]; total dose 25 mg/kg): 0/5 | Mortality rate ([7]; total dose 50 mg/kg): 0/5

COC(=O)Oc1ccc2c3c(c4cc(OC)c(OC)cc4c2c1)CN1CCC[C@H]1C3.Cl [Compound 37, carbonic acid(S)-6,7-dimethoxy-9,10,11,12,12a,13-hexahydro-9a-aza-cyclopenta[b]triphenylene-3-yl ester methyl ester hydrochloride]
NFκB inhibitory activity IC50 [1]: 2.9 ng/mL | SV40 promoter inhibitory activity IC50 [2]: >100 ng/mL | SW480 proliferation inhibitory action IC50 [3]: 0.68 ng/mL | HT-29 proliferation inhibitory action IC50 [4]: 1.6 ng/mL | A549 proliferation inhibitory action IC50 [5]: 0.65 ng/mL | Mortality rate ([7]; total dose 25 mg/kg): 0/5 | Mortality rate ([7]; total dose 50 mg/kg): 0/5

COc1cc2c3c(c4ccc(OC(=O)c5ccco5)cc4c2cc1OC)C[C@@H]1CCCN1C3.Cl [Compound 38, furan-2-carboxylic acid(S)-6,7-dimethoxy-9,10,11,12,12a,13-hexahydro-9a-aza-cyclopenta[b]triphenylene-3-yl ester hydrochloride]
NFκB inhibitory activity IC50 [1]: 0.50 ng/mL | SV40 promoter inhibitory activity IC50 [2]: >1000 ng/mL | SW480 proliferation inhibitory action IC50 [3]: 0.62 ng/mL | HT-29 proliferation inhibitory action IC50 [4]: 3.2 ng/mL | A549 proliferation inhibitory action IC50 [5]: 1.1 ng/mL | Mortality rate ([7]; total dose 25 mg/kg): 0/5 | Mortality rate ([7]; total dose 50 mg/kg): 0/5

COc1cc2c3c(c4ccc(OC(=O)c5cccnc5)cc4c2cc1OC)C[C@@H]1CCCN1C3.Cl [Compound 39, nicotinic acid(S)-6,7-dimethoxy-9,10,11,12,12a,13-hexahydro-9a-aza-cyclopenta[b]triphenylene-3-yl ester hydrochloride]
NFκB inhibitory activity IC50 [1]: 2.2 ng/mL | SV40 promoter inhibitory activity IC50 [2]: >100 ng/mL | SW480 proliferation inhibitory action IC50 [3]: 1.3 ng/mL | HT-29 proliferation inhibitory action IC50 [4]: 2.6 ng/mL | A549 proliferation inhibitory action IC50 [5]: 0.97 ng/mL | Mortality rate ([7]; total dose 25 mg/kg): 0/5 | Mortality rate ([7]; total dose 50 mg/kg): 0/5
